Data as given in article PMC12567082, “Silver(I) Complexes Bearing S-Alkyl Thiosalicylic Acid Derivatives: DNA/BSA Binding and Antitumor Activity In Vitro and In Vivo” (Pharmaceutics, 2025).

Assays:
[1] = test system: human fibroblast cell lines (MRC-5); test: MTT assay MRC-5; format: cell-based
Procedure: (§1) Mouse breast cancer (4T1), human breast cancer (MDA-MB-468), mouse colon cancer (CT26), human colon cancer (HCT-116), mouse lung cancer (LLC1), human lung cancer (A549), mouse mesenchymal stem cells (mMSC), and human fibroblast cell lines (MRC-5) were used in this study and were consistently cultured in complete Dulbecco’s Modified Eagle Medium (DMEM) (Sigma-Aldrich, St. Louis, MO, USA) in incubator (5% CO2) under standard conditions. Complete DMEM was Dulbecco’s Modified Eagle Medium supplemented with 10% fetal bovine serum (FBS), 1 mmol/L penicillin–streptomycin, 1 mmol/L mixed nonessential amino acids, and 2 mmol/L L-glutamine (Sigma-Aldrich, St. Louis, MO, USA). All cancer cell lines and MRC-5 cell line were obtained from American Type Culture Collection (ATCC, Manassas, VA, USA), but mMSC was manufactured by Gibco (Middlesex County, MA, USA).
(§2) In 96-well microplates, we seeded cancer and non-cancer cells, more exactly 5 × 10^3 cells per well in 100 μL of complete DMEM (Sigma-Aldrich, St. Louis, MO, USA). […] Tested concentration range for all metal-based substances was 3.9–500 μM. After incubation with MTT solution (5 mg/mL; pH 7.2) for 4 h, optical density was determined using Zenyth 3100 microplate multimode detector (Salzburg, Austria). All experiments were performed three times, each in triplicate, and the IC50 values as well as selectivity indexes (IC50 for mMSC or MRC-5/IC50 for mouse or human cancer cells) were calculated.

4T1 cells [2] = test: Mitochondrial membrane potential and ROS levels; format: cell-based, mouse; details: 0.5 µM
Procedure: After 24 h of C3 treatment, 4T1 cells were stained with appropriate dyes, followed by flow cytometry analysis using FACS Calibur Flow Cytometer (BD Biosciences, San Jose, CA, USA). Mitochondrial membrane potential stained by Rhodamine-123 (Sigma-Aldrich, St. Louis, MO, USA), TMRE (Abcam, Cambridge, UK), and cellular ROS levels were stained by DC-FHDA (Sigma-Aldrich, St. Louis, MO, USA).

mouse lung cancer (LLC1) = test: MTT assay LLC1; format: cell-based
Procedure: as §1, §2

4T1 cells [3] = test: Flow cytometry of apoptosis and proliferation markers; format: cell-based, mouse; details: 0.5 µM, 24 h, vs untreated
Procedure: Flow cytometry was performed on 4T1 cells treated with 0.5 µM of C3 for 24 h or untreated cells. After treatment, cells were incubated with antibodies specific for Bax (Abcam Cambridge, Cambridge, UK), Bcl-2 (Abcam Cambridge, UK), BclXL (Thermo Fisher Scientific, Waltham, MA, USA), MCL-1 (Thermo Fisher Scientific, Waltham, MA, USA) caspase 3 (Abcam Cambridge, UK), Ki-67 (eBioscience, San Diego, CA, USA), cyclin D3 (Abcam Cambridge, UK), p21 (Abcam Cambridge, UK), p16 (Abcam Cambridge, UK), and p27 (Abcam Cambridge, UK) and secondary antibodies as previously described. FACSCalibur Flow Cytometer (BD Biosciences, San Jose, CA, USA) was used for flow cytometry, and the data were analyzed using FlowJo (version 10.7.2; Tree Star Inc. Ashland, OR, USA).

4T1 cells [4] = test: Colony formation assay; format: cell-based, mouse; details: 0.5 µM, 14 days
Procedure: Cancer 4T1 cells were seeded in a six-well plate (500 cells per well) and incubated with C3 (0.5 µM) or DMEM only for 14 days. After fixation, the colonies were stained using crystal violet.

CT-DNA = test: EB–CT-DNA fluorescence quenching; format: binding, calf; details: EB–CT-DNA 8.52 × 10^−5 M, PBS pH 7.4
Procedure: All samples were prepared in phosphate-buffered saline (PBS, pH 7.4). Stern–Volmer Equation (2) was used to interpret the fluorescence quenching data.

[5] = test system: human breast cancer (MDA-MB-468); test: MTT assay MDA-MB-468; format: cell-based
Procedure: as §1, §2

4T1 cells [6] = test: Analysis of cell death (Annexin V/PI) in 4T1; format: cell-based, mouse; details: 0.5 µM, 24 h, vs untreated
Procedure: 4T1 cells were treated with 0.5 µM of C3 or grown in DMEM only (control 4T1 cells) for 24 h and stained with Annexin-V-FITC and propidium iodide (PI) (BD Pharmingen, San Diego, CA, USA) as previously described. Quantification of cellular death was measured using FACSCalibur Flow Cytometer (BD Biosciences, San Jose, CA, USA) and FlowJo software (version 10.7.2; Tree Star Inc. Ashland, OR, USA).

human lung cancer (A549) = test: MTT assay A549; format: cell-based
Procedure: as §1, §2

For `CCCSc1ccccc1C(=O)[O][Ag].CCCSc1ccccc1C(=O)[O][Ag]` [C3, [Ag2(S-propyl-thiosal)2]], the IC50 ([1]; MRC-5, 24 h) was 38.1 ± 1.13 µM, the IC50 ([1]; MRC-5, 48 h) was 43.3 ± 1.1 µM and the “TMRE fluorescence (mitochondrial membrane potential)” value (4T1 cells [2]) was “significant decrease”. The “level of intracellular ROS” value (4T1 cells [2]; 24 h incubation) was “increased”, the IC50 (mouse lung cancer (LLC1); LLC1, 24 h) was 41.6 ± 1.27 µM and the IC50 (mouse lung cancer (LLC1); LLC1, 48 h) was 20.3 ± 1.18 µM. For the same molecule, the “Selectivity Index (IC50 mMSC or MRC-5/ IC50 Cancer Cell)” value (“Selectivity Index” for short) (mouse lung cancer (LLC1); LLC1, 48 h) was 0.21, the Bax/Bcl-2 ratio (4T1 cells [3]) was “higher” and the 4T1 colony formation (4T1 cells [4]) was “almost total inhibition”. The “Ksv EB (Stern–Volmer constant)” value (CT-DNA) was “(1.4 ± 0.1) × 10^4 M^−1”, the IC50 ([5]; MDA-MB-468, 24 h) was 15.5 ± 1.21 µM and the “Selectivity Index” value ([5]; MDA-MB-468, 24 h) was 2.46. For the same molecule, the IC50 ([5]; MDA-MB-468, 48 h) was 8.76 ± 1.24 µM, the “Selectivity Index” value ([5]; MDA-MB-468, 48 h) was 4.95 and the “percentage of early apoptotic cells” value (4T1 cells [6]) was “No difference”. The “percentage of late apoptotic 4T1 cells (AnnV+/PI+)” value (4T1 cells [6]) was “increased”, the IC50 (human lung cancer (A549); A549, 24 h) was 55.8 ± 1.83 µM and the “Selectivity Index” value (human lung cancer (A549); A549, 24 h) was 0.68. For the same molecule, the IC50 (human lung cancer (A549); A549, 48 h) was 66.3 ± 1.18 µM and the “Selectivity Index” value (human lung cancer (A549); A549, 48 h) was 0.65.
